Test results as given in patent publication EP4796540A2, “N-SULFONAMIDE NITROGEN-CONTAINING FUSED HETEROCYCLIC COMPOUND, AND APPLICATION THEREOF” (priority 2023, dated 2025).
Where two headings read alike, the source gives them in different places.

How the values were obtained:
[1] = tested on: p53 Y220C mutant; experiment: HTRF assay: compounds promoting the binding of p53 Y220C mutant with DNA; assay type: biochemical; conditions: His-tagged p53 Y220C (94-312), biotin-labeled DNA
Protocol: Homogeneous time-resolved fluorescence (HTRF) assay was used to measure the reactivation effect of compounds on the p53 Y220C mutant. The recombinant His-tagged p53 Y220C (94-312) used for HTRF assays was expressed in E. coli and purified to the purity of 90% through Ni-NTA column. The biotin-labeled DNA used for HTRF assays was synthesized by Pharmaron Inc, with the specific sequence of 5'-[…]-3' .
The binding of recombinant His-tagged p53 Y220C protein and biotin-labeled DNA was measured using fluorescence resonance energy transfer (FRET). For FRET assays, binding between p53 mutants and DNA sequences was measured by detecting the fluorescence of the interaction between an anti-His antibody (Cisbio, 61HI2KLA) conjugated to Eu and d2-conjugated streptavidin (Cisbio, 610SADLF) bound to a biotin-labeled DNA molecule. Compounds were prepared into 2 mM stock solutions and serially diluted into 10 concentrations at a 1:3 ratio in DMSO. Each 200-fold working concentration compound was sequentially diluted to 4-fold working concentration. 4 µL of compound solution was transferred line by line to a 384-well assay plate using Echo, containing 2 replicates per column. 4 µL of p53 solution was added to the assay plate. 4 µL of biotin DNA solution was added to the assay plate, and then 4 µL of assay solution (His-Eu antibody and streptavidin-d2) was added to each well of the assay plate. The assay plate was incubated overnight and protected from light. Fluorescence was read on BMG (BMG LRBTECH).
The ratio of each well was calculated (ratio_665 nm/615 nm-ratio_background). The activity % was calculated as follows: C = (Ave_Ac−Ave_Ba)/(Ave_Dc_Ave_Bd) [formula] R data = (A−Ave_Ba−C*D)/(D−Ave_Bd)*(Ave_Dc−Ave_Bd) [formula] Activity % = R data/Ave_VC*100. [formula] • A: fluorescence intensity of the sample at 665 nm; • D: fluorescence intensity of the sample at 615 nm; • Ba: fluorescence intensity of the plate background at 665 nm; • Bd: fluorescence intensity of the plate background at 615 nm; • Dc: fluorescence intensity of HIS-Eu background at 615 nm; • Ac: fluorescence intensity of streptavidin-d2 background at 665 nm; • VC: DMSO treatment group.
SC150 was calculated using Graphpad 8.0 to fit the logarithm of activity% and compound concentration to a nonlinear regression (dose response-variable slope). Table 1: Activity of compounds promoting the binding of p53 Y220C mutant with DNA

[2] = tested on: CYP3A4/5; conditions: human, microsomes, 10 min, 10 µM
Protocol: (§1) Experimental purpose: To test the inhibitory effect of compounds on CYP isoenzymes at a single concentration. • 2. Experimental instrument and reagents:
(§2) 8.71 g of K2HPO4 was dissolved in 950 mL of water. The pH was adjusted to 7.4 with HCl solution. The mixture was adjusted to a final volume of 1000 mL with water. The buffer was filtered through a 0.45 µm filter. The buffer was stored in a refrigerator at 4°C for future use. Terfenadine/tolbutamide (1 mg/mL each) stock solutions were prepared with DMSO. The above stock solution was diluted with acetonitrile to produce a quenching solution containing 5/10 ng/mL (terfenadine/tolbutamide).
(§3) Liver microsomes were thawed in a 37°C water bath prior to use. Liver microsome working solution (final concentration of 0.5 mg/mL) was prepared. 5 mM NADPH working solution was prepared with phosphate buffered saline. The above stock solution was prepared into a 2 mM working solution with DMSO.
(§4) 238.5 µL of liver microsome working solution was added to a 1.1 mL tube. 1.5 µL of test compound/control working solution/DMSO was added and mixed well by pipetting several times. The mixture was pre-incubated in water bath with shaking at 37°C for 5 minutes. After the pre-incubation, 60 µL of NADPH working solution was added and mixed well by pipetting several times. The mixture was incubated in water bath with shaking at 37°C for 10 minutes. Immediately after incubation, 500 µL of quenching solution was added and vortexed for 1 minute. All samples were centrifuged at 4,000 rpm for 15 minutes at 4°C. 300 µL of the above supernatants were aliquoted for further LC-MS/MS analysis.
(§5) Inhibition rate (% inhibition) is calculated using metabolite formation of the test compound or the control compound compared to the matrix control.

[3] = tested on: CYP3A4/5 enzymes; experiment: Multi-concentration inhibitory activity curve of CYP3A4/5 enzymes, liver microsomes; assay type: in vitro ADME; conditions: substrate Midazolam; human liver microsomes; 10 min
Protocol: Experimental purpose: To determine the concentration inhibitory activity curve of compounds on CYP3A4/5 enzymes. • 2.
as §2
Liver microsomes were thawed in a 37°C water bath prior to use. Liver microsome working solution (final system concentration of 0.5 mg/mL) was prepared. 5 mM NADPH working solution was prepared with phosphate buffered saline. The above stock solution was prepared into a 2 mM working solution with DMSO. The above stock solution was diluted with acetonitrile (4-fold dilution, 6 non-zero concentrations).
238.5 µL of liver microsome working solution was added to a 1.1 mL tube. 1.5 µL of test compound/control working solution/DMSO was added and mixed well by pipetting several times. The mixture was pre-incubated in water bath with shaking at 37°C for 5 minutes. […]
The half-maximal inhibitory concentration (IC50) was calculated using Graph Pad Prism.

[4] = tested on: CYP3A4/5; experiment: Inhibition of CYP isoenzymes at a single concentration, liver microsomes; conditions: final compound concentration 10 µM; substrate Midazolam; human liver microsomes
Protocol: as §1, §2, §3, §4, §5

SMILES | SC150 [1] [nM] | other results
COc1nc(C(=O)NS(C)(=O)=O)ccc1NCC#Cc1cc2c(N[C@@H]3CCN(C)C[C@@H]3F)cccn2c1CC(F)(F)F [Cpd-1, 5-((3-(8-(((3S,4R)-3-Fluoro-1-methylpiperidin-4-yl)amino)-3-(2,2,2-trifluoroethyl)indolizin-2-yl)prop-2-yn-1-yl)amino)-6-methoxy-N-(methylsulfonyl)picolinamide] | 1.0 | 
COc1nc(C(=O)NS(C)(=O)=O)ncc1NCC#Cc1cc2c(N[C@@H]3CCN(C)C[C@@H]3F)cccn2c1CC(F)(F)F [Cpd-3, 5-((3-(8-(((3S,4R)-3-Fluoro-1-methylpiperidin-4-yl)amino)-3-(2,2,2-trifluoroethyl)indolizin-2-yl)prop-2-yn-1-yl)amino)-4-methoxy-N-(methylsulfonyl)pyrimidine-2-carboxamide] | 0.74 | 
[2H]C([2H])([2H])Oc1nc(C(=O)NS(=O)(=O)C2CC2)ccc1NCC#Cc1cc2c(N[C@@H]3CCN(C)C[C@@H]3F)cccn2c1CC(F)(F)F [Cpd-4, N-(Cyclopropylsulfonyl)-5-((3-(8-(((3S,4R)-3-fluoro-1-methylpiperidin-4-yl)amino)-3-(2,2,2-trifluoroethyl)indolizin-2-yl)prop-2-yn-1-yl)amino)-6-(methoxy-d3)picolinamide] | 0.35 | 
[2H]C([2H])([2H])Oc1nc(C(=O)NS(=O)(=O)CC2CC2)ccc1NCC#Cc1cc2c(N[C@@H]3CCN(C)C[C@@H]3F)cccn2c1CC(F)(F)F [Cpd-5, N-((Cyclopropylmethyl)sulfonyl)-5-((3-(8-(((3S,4R)-3-fluoro-1-methylpiperidin-4-yl)amino)-3-(2,2,2-trifluoroethyl)indolizin-2-yl)prop-2-yn-1-yl)amino)-6-(methoxy-d3)picolinamide] | 1.1 | 
[2H]C([2H])([2H])Oc1nc(C(=O)NS(=O)(=O)CC(F)(F)F)ccc1NCC#Cc1cc2c(N[C@@H]3CCN(C)C[C@@H]3F)cccn2c1CC(F)(F)F [Cpd-6, 5-((3-(8-(((3S,4R)-3-Fluoro-1-methylpiperidin-4-yl)amino)-3-(2,2,2-trifluoroethyl)indolizin-2-yl)prop-2-yn-1-yl)amino)-6-(methoxy-d3)-N-((2,2,2-trifluoroethyl)sulfonyl)picolinamide] | 1.7 | 
COc1nc(C(=O)NS(=O)(=O)C2CC2)ccc1NCC#Cc1cc2c(N[C@@H]3CCN(C)C[C@@H]3F)cccn2c1CC(F)(F)F [Cpd-7, N-(Cyclopropylsulfonyl)-5-((3-(8-(((3S,4R)-3-fluoro-1-methylpiperidin-4-yl)amino)-3-(2,2,2-trifluoroethyl)indolizin-2-yl)prop-2-yn-1-yl)amino)-6-methoxypicolinamide] | 0.64 | 
COc1cc(S(C)(=O)=O)ccc1NCC#Cc1nc2c(N[C@@H]3CCN(C)C[C@@H]3F)cccn2c1CC(F)(F)F [Cpd-B] | 15 | Inhibition rate (%) CYP3A4/5 (Midazolam) [2]: 61%; Inhibition rate (%) CYP3A4/5 (Testosterone) [2]: 75%
CNC(=O)c1ccc(NCC#Cc2cc3c(N[C@@H]4CCN(C)C[C@@H]4F)cccn3c2CC(F)(F)F)c(OC)c1 [Cpd-C, 4-((3-(8-(((3S,4R)-3-Fluoro-1-methylpiperidin-4-yl)amino)-3-(2,2,2-trifluoroethyl)indolizin-2-yl)prop-2-yn-1-yl)amino)-3-methoxy-N-methylbenzamide] | 4.6 | IC50 [3]: 3.8 µM; Inhibition rate (%) CYP3A4/5 (Midazolam) [4]: 79%
